Test results reported in ChEMBL document CHEMBL4680285, “Aminothiazolones as potent, selective and cell active inhibitors of the PIM kinase family” (Bioorg Med Chem, 2020).

test: Half life in mouse liver microsomes; format: ADME, Microsome

half-life [min]	SMILES
> 100	N=C1NC(=O)/C(=C/c2csc(-c3ccc(C(F)(F)F)cc3)n2)S1
49	O=C1NC(=S)S/C1=C\c1csc(-c2ccc(C(F)(F)F)cc2)n1
5.68	CN(c1cccc(-c2nc(/C=C3\SC(NCC(C)(C)CO)=NC3=O)cs2)c1)S(C)(=O)=O
> 120	CN1CCC(CNC2=NC(=O)/C(=C/c3csc(-c4ccc(C(F)(F)F)cc4)n3)S2)CC1
> 120	O=C1N=C(NCC2(CO)CCC2)S/C1=C\c1csc(-c2ccc(OC(F)(F)F)cc2)n1
> 120	CN1CCC(CNC2=NC(=O)/C(=C/c3ccc(-c4cccc(Cl)c4)o3)S2)CC1
781	O=C1N=C(N[C@H]2CC[C@H](O)CC2)S/C1=C\c1csc(-c2ccc(OC(F)(F)F)cc2)n1
> 120	CC(C)(CO)CNC1=NC(=O)/C(=C/c2csc(-c3cccc(OC(F)(F)F)c3)n2)S1
27.5	CN1CCC(CNC2=NC(=O)/C(=C/c3csc(-c4cccc(N(C)S(C)(=O)=O)c4)n3)S2)CC1
7.56	CN(C)S(=O)(=O)Nc1cccc(-c2nc(/C=C3\SC(NCC(C)(C)CO)=NC3=O)cs2)c1
> 120	O=C1N=C(NCC2(CO)CC2)S/C1=C\c1csc(-c2ccc(OC(F)(F)F)cc2)n1
> 120	CN(C)CCNC1=NC(=O)/C(=C/c2csc(-c3ccc(OC(F)(F)F)cc3)n2)S1
> 120	CC(C)(CO)CNC1=NC(=O)/C(=C/c2csc(-c3ccc(OC(F)(F)F)cc3)n2)S1

test: Half life in mouse liver S9 fraction; format: ADME, subcellular

half-life [min]	SMILES
45.6	CC(C)(CO)CNC1=NC(=O)/C(=C/c2csc(-c3ccc(F)cc3O)n2)S1
44.4	CC(C)(CO)CNC1=NC(=O)/C(=C/c2csc(-c3cccc(F)c3O)n2)S1
84.2	CC(C)(CO)CNC1=NC(=O)/C(=C/c2csc(-c3cccc(OC(F)(F)F)c3O)n2)S1
> 120	O=C1N=C(NCC2CCN(CCO)CC2)S/C1=C\c1csc(-c2ccccc2O)n1
28.9	O=C1N=C(NCC2(CO)CC2)S/C1=C\c1csc(-c2ccccc2O)n1
22.1	O=C1N=C(N[C@H]2CCC[C@@H]2CO)S/C1=C\c1csc(-c2cccc(F)c2O)n1 (stereo in doubt)
